Literature values as cited in US20210085711A1 (Japan Tobacco Inc., priority 2017, published 2021).

Tested on: patients
Details: investigation up to the approval; cited from earlier work

sodium ferrous citrate
expression rate of nausea and vomiting: about 13%
